From patent publication US11096985B2, “Antimicrobial peptides, their variants and uses” (priority 2015, dated 2021)
Where a SMILES comes first, the peptide text is derived from it. [ ]: non-standard residue; d: D form.

Experiments:
[1] = test system: Klebsiella pneumoniae (ATCC 10031); type: cell-based; conditions: Peptides 50 μg; Gentamycin 5 μg; diameter including the wells
Method: (§1) The radial diffusion assay (RDA) was carried out as described by Andersen et al. (2010). Briefly, 30 ml of 1/10 Muller-Hinton broth (MHB) supplemented with 1% agarose and 5.0×10^5 CFU/ml S. aureus or E. coli or K. pneumoniae, P. aeruginosa cells was poured into a single-well omnitray (Nunc) and overlaid with a TSP 96-well plate. […] The peptides were also tested against Fusarium oxysporum and Verticillium dahliae, for which 1/3 potato dextrose agarose was used. To test the synergistic effect of peptides, each peptide was mixed in equimolar concentrations. Mix1 (met1-12), Mix2 (met3, 4 and 5), Mix3 (met 8, 9 and 10), Mix 4 (met11, 12) and Mix5 (8, 9, 10, 11, 12) were prepared and tested against E. coli and S. aureus. Gentamicin and vancomycin were included as positive controls for bacteria and amphotericin B was used as the control for fungi.

[2] = test system: Staphylococcus aureus (ATCC 25923); type: cell-based; conditions: Peptides 50 μg; Gentamycin 5 μg; diameter including the wells
Method: as §1

[3] = test system: Escherichia coli (ATCC 25922); type: cell-based; conditions: Peptides 50 μg; Gentamycin 5 μg; diameter including the wells
Method: as §1

[4] = test system: Escherichia coli, Staphylococcus aureus, Klebsiella pneumoniae and Pseudomonas aeruginosa; experiment: Radial diffusion assay, summary over the bacteria tested; type: cell-based; conditions: Gentamicin 5 μg
Method: The radial diffusion assay (RDA) was carried out as described by Andersen et al. (2010). Briefly, 30 ml of 1/10 Muller-Hinton broth (MHB) supplemented with 1% agarose and 5.0×10^5 CFU/ml S. aureus or E. coli or K. pneumoniae, P. aeruginosa cells was poured into a single-well omnitray (Nunc) and overlaid with a TSP 96-well plate. One hundred μg of each synthesized peptide was tested. The peptides were also tested against Fusarium oxysporum and Verticillium dahliae, for which 1/3 potato dextrose agarose was used. To test the synergistic effect of peptides, each peptide was mixed in equimolar concentrations. Mix1 (met1-12), Mix2 (met3, 4 and 5), Mix3 (met 8, 9 and 10), Mix 4 (met11, 12) and Mix5 (8, 9, 10, 11, 12) were prepared and tested against E. coli and S. aureus. Gentamicin and vancomycin were included as positive controls for bacteria and amphotericin B was used as the control for fungi.

[5] = test system: Pseudomonas aeruginosa (ATCC 27853); experiment: Radial diffusion assay (RDA) against P. aeruginosa; type: cell-based; conditions: Peptides 50 μg; Gentamycin 5 μg; diameter including the wells
Method: as §1

[6] = test system: Pseudomonas aeruginosa (ATCC 27853); type: cell-based
Method: (§2) Minimum inhibition concentrations (MICs) were determined against Escherichia coli (ATCC 25922), Staphylococcus aureus (ATCC 25923), Klebsiella pneumoniae (ATCC 10031) and Pseudomonas aeruginosa (ATCC 27853). Also clinical strains of E. coli, K. pneumoniae, E. cloacae, P. aeruginosa, Serratia marcescens, Proteus mirabilis, S. pneumoniae, Acinetobacter baumannii, A. johnsonii and S. aureus were used for MICs assays. Additionally, clinical strains of yeast including Candida albicans, C. glabrata, C. parapsilosis and C. quillermondiae were used. The susceptibility of these microorganisms to Chain peptides were determined using micro broth dilution assay. Colonies of the respective microorganism from Muller Hinton (MH) agar plates incubated overnight were suspended in MH broth media and final concentration of microorganism was adjusted to 5.0×10^5 cfu/ml. An aliquot of 10 μl of each Chain peptide, or gentamicin, tetracycline as reference antibiotics were added in differing concentrations along with 90 μl of bacterial suspension to 96 well polypropylene plates and incubated at 37° C. for 20 to 24 hours. Concentrations of Chain peptides and reference antibiotics ranged from 0.125 to 128 μg/ml and the MICs were recorded as the lowest concentration with no visual growth of bacteria. Similarly, antifungal MICs were tested in Potato dextrose broth.

[7] = test system: Klebsiella pneumoniae (ATCC 10031); type: cell-based
Method: as §2

[8] = test system: Staphylococcus aureus (ATCC 25923); type: cell-based
Method: as §2

[9] = test system: Escherichia coli (ATCC 25922); type: cell-based
Method: as §2

[10] = test system: S. aureus COL (MRSA); experiment: Synergistic activity with Ertapenem (4 μg/ml) against MRSA, MIC; type: cell-based, Staphylococcus aureus; conditions: Ertapenem 4 μg/ml; D-form
Outline: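 Broth microdilution in MH broth with 5.0×10^5 cfu/ml inoculum, 37° C for 20–24 h. MIC was the lowest concentration without visible growth (range 0.125–128 μg/ml). L- and D-form peptides were tested on S. aureus RN4220 and COL (MRSA), alone and with Ertapenem at 4 μg/ml.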

Compound	Inhibition zone, Klebsiella pneumoniae [1] [mm]	Inhibition zone, Staphylococcus aureus [2] [mm]	Inhibition zone, Escherichia coli [3] [mm]	zone of inhibition over the four bacteria [4]	Inhibition zone, Pseudomonas aeruginosa [5] [mm]	Minimum inhibitory concentration, Pseudomonas aeruginosa (ATCC 27853) [6] [µg/mL]	Minimum inhibitory concentration, Klebsiella pneumoniae (ATCC 10031) [7] [µg/mL]	Minimum inhibitory concentration, Staphylococcus aureus (ATCC 25923) [8] [µg/mL]	Minimum inhibitory concentration, Escherichia coli (ATCC 25922) [9] [µg/mL]	MIC against MRSA strains along with Ertapenem, D-peptide [10] [µg/mL]
Gentamicin [reference compound]	22	24	22	22-24 mm	24	0.25	0.25	0.25	1	
CC(C)C[C@@H](NC(=O)[C@@H](CCCCN)NC(=O)[C@@H](CCCCN)NC(=O)[C@@H](Cc1ccccc1)NC(=O)[C@@H](CC(C)C)NC(=O)[C@@H](Cc1c[nH]c2ccccc12)NC(=O)[C@@H](CCCNC(=N)N)NC(=O)[C@@H](Cc1c[nH]c2ccccc12)NC(=O)[C@@H](CCCCN)NC(=O)[C@@H](CCCNC(=N)N)NC(=O)[C@H](N)CCCCN)C(=O)O [Chain310D] (H-[dK][dR][dK][dW][dR][dW][dL][dF][dK][dK][dL]-OH)										0.03
